Source: ChEMBL document CHEMBL3421576, “N-((1,3-Diphenyl-1H-pyrazol-4-yl)methyl)anilines: A novel class of anti-RSV agents” (Bioorg Med Chem Lett, 2015)

How the values were obtained:
[1] = Cytotoxicity against bovine MDBK cells assessed as cell viability after 72 hrs by MTT method; type: cell-based, Bos taurus; details: cattle
[2] = system: Bovine viral diarrhea virus 1; assay: Antiviral activity against BVDV infected in bovine MDBK cells assessed as protection against viral-induced cytopathogenecity after 3 to 4 days by MTT method; type: functional, organism-based; details: Bovine viral diarrhea virus isolates and strains, MDBK
[3] = Selectivity index, ratio of CC50 for bovine MDBK cells to EC50 for BVDV infected in bovine MDBK cells
[4] = Cytotoxicity against hamster BHK21 cells assessed as cell viability after 72 hrs by MTT method; type: cell-based, Mesocricetus auratus, BHK-21
Yellow fever virus = assay: Antiviral activity against YFV infected in hamster BHK21 cells assessed as protection against viral-induced cytopathogenecity after 3 to 4 days by MTT method; type: functional, organism-based, BHK-21; details: Yellow fever virus, BHK-21
[5] = Selectivity index, ratio of CC50 for hamster BHK21 cells to EC50 for YFV infected in hamster BHK21 cells; parameters: species or system BHK-21
[6] = Cytotoxicity against African green monkey Vero 76 cells assessed as cell viability after 48 to 96 hrs by MTT method; type: cell-based; details: chlorocebus sabaeus, Vero 76 cells
[7] = system: Respiratory syncytial virus; assay: Antiviral activity against RSV infected in African green monkey Vero 76 cells after 5 days by plaque reduction assay; type: functional, organism-based; details: human respiratory syncytial virus, Vero, 120 h
[8] = Selectivity index, ratio of CC50 for African green monkey Vero 76 cells to EC50 for RSV infected in African green monkey Vero 76 cells
[9] = Cytotoxicity against human MT4 cells assessed as cell viability after 96 hrs by MTT method; type: cell-based
[10] = system: Human immunodeficiency virus 1; assay: Antiviral activity against HIV1 infected in human MT4 cells assessed as protection against viral-induced cytopathogenecity after 4 days by MTT method; type: functional, organism-based; details: Human immunodeficiency virus 1, MT4, 96 h
[11] = system: Mammalian orthoreovirus 1; assay: Antiviral activity against Reovirus 1 infected in hamster BHK21 cells assessed as protection against viral-induced cytopathogenecity after 3 to 4 days by MTT method; type: functional, cell-based; details: Mammalian orthoreovirus 1, BHK-21
Coxsackievirus B5 = assay: Antiviral activity against Coxsackievirus B5 infected in African green monkey Vero 76 cells after 3 days by plaque reduction assay; type: functional, organism-based; details: Enterovirus B, Vero, 72 h
Enterovirus C = assay: Antiviral activity against Poliovirus Sb-1 infected in African green monkey Vero 76 cells after 2 days by plaque reduction assay; type: functional, organism-based; details: Enterovirus C, Sb-1, Vero, 48 h
Vaccinia virus = assay: Antiviral activity against Vaccinia virus infected in African green monkey Vero 76 cells after 3 days by plaque reduction assay; type: functional, organism-based, Orthopoxvirus vaccinia; details: Orthopoxvirus vaccinia, Vero, 72 h
Human alphaherpesvirus 1 = assay: Antiviral activity against HSV1 infected in African green monkey Vero 76 cells after 3 days by plaque reduction assay; type: functional, organism-based; details: Human alphaherpesvirus 1, Vero, 72 h
[12] = system: Vesicular stomatitis virus; assay: Antiviral activity against VSV infected in African green monkey Vero 76 cells after 2 days by plaque reduction assay; type: functional, organism-based; details: Vesicular stomatitis virus, Vero, 48 h

For `Cc1ccc(NCc2cn(-c3ccccc3)nc2-c2ccccc2)cc1`, the CC50 at 72 h [1] was > 100 µM, the EC50 [2] was 53 µM and the “Ratio CC50/EC50” value [3] was >1.9. The CC50 at 72 h [4] was > 100 µM, the EC50 (Yellow fever virus) was 65 µM and the “Ratio CC50/EC50” value [5] was >1.5. The CC50 [6] was > 100 µM, the EC50 [7] was 28 µM and the “Ratio CC50/EC50” value [8] was >3.6. For the same molecule, the CC50 at 96 h [9] was > 100 µM, the EC50 [10] was > 100 µM and the EC50 [11] was > 100 µM. The EC50 (Coxsackievirus B5) was > 100 µM, the EC50 (Enterovirus C) was > 100 µM and the EC50 (Vaccinia virus) was > 100 µM. The EC50 (Human alphaherpesvirus 1) was > 100 µM and the EC50 [12] was > 100 µM.
In the case of `Cc1ccc(NCc2cn(-c3ccccc3)nc2-c2ccc(C(F)(F)F)cc2)cc1`, the CC50 at 72 h [1] is reported as > 100 µM, the EC50 [2] is reported as 54 µM and the “Ratio CC50/EC50” value [3] is reported as >1.8. For the same molecule, the CC50 at 72 h [4] was 88 µM, the EC50 (Yellow fever virus) was > 88 µM and the CC50 [6] was 82 µM. For the same molecule, the EC50 [7] was 25 µM, the “Ratio CC50/EC50” value [8] was 3.3 and the CC50 at 96 h [9] was > 100 µM. For the same molecule, the EC50 [10] was > 100 µM, the EC50 [11] was > 88 µM and the EC50 (Coxsackievirus B5) was > 82 µM. The EC50 (Enterovirus C) was > 82 µM, the EC50 (Vaccinia virus) was > 82 µM and the EC50 (Human alphaherpesvirus 1) was > 82 µM. The EC50 [12] was > 82 µM.
With `Brc1ccc(NCc2cn(-c3ccccc3)nc2-c2ccccc2)cc1` the CC50 at 72 h [1] was > 100 µM, the EC50 [2] was 31 µM and the “Ratio CC50/EC50” value [3] was >3.2. For the same molecule, the CC50 at 72 h [4] was > 100 µM, the EC50 (Yellow fever virus) was 32 µM and the “Ratio CC50/EC50” value [5] was >3.1. For the same molecule, the CC50 [6] was 52 µM, the EC50 [7] was 9 µM and the “Ratio CC50/EC50” value [8] was 5.8. For the same molecule, the CC50 at 96 h [9] was > 100 µM, the EC50 [10] was > 100 µM and the EC50 [11] was > 100 µM. The EC50 (Coxsackievirus B5) was > 52 µM, the EC50 (Enterovirus C) was > 52 µM and the EC50 (Vaccinia virus) was > 52 µM. The EC50 (Human alphaherpesvirus 1) was > 52 µM and the EC50 [12] was > 52 µM.
With `Clc1ccc(NCc2cn(-c3ccccc3)nc2-c2ccc(Cl)cc2)cc1` the CC50 at 72 h [1] was > 100 µM, the EC50 [2] was 31 µM and the “Ratio CC50/EC50” value [3] was >3.2. The CC50 at 72 h [4] was 73 µM, the EC50 (Yellow fever virus) was > 73 µM and the CC50 [6] was 90 µM. For the same molecule, the EC50 [7] was 13 µM, the “Ratio CC50/EC50” value [8] was 6.9 and the CC50 at 96 h [9] was > 100 µM. For the same molecule, the EC50 [10] was > 100 µM, the EC50 [11] was > 73 µM and the EC50 (Coxsackievirus B5) was > 90 µM. For the same molecule, the EC50 (Enterovirus C) was > 90 µM, the EC50 (Vaccinia virus) was > 90 µM and the EC50 (Human alphaherpesvirus 1) was > 90 µM. For the same molecule, the EC50 [12] was > 90 µM.
